{
  "source": "patent US6419962B1",
  "about": "“External skin treatment composition” (Shiseido Company, Ltd., priority 1996, dated 2002)",
  "experiment": "Moisture retention effect (coefficient of rate of moisture evaporation from weight change of sample)",
  "assay_type": "physicochemical",
  "conditions": "50 wt % aqueous solution",
  "protocol": "The moisture retention effect of unicellularized carrot ([…]) was studied in comparison with water, glycerin ([…]), a methanol extract of carrot ([…]), and DPG (dipropylene glycol) ([…]).\nThat is, 50 μl each of the above samples was placed on a chemical balance placed in a room held to 22° C. and a dry humidity of 45%. The change in weight was measured every three minutes for seven times in total. From the results, the coefficient of the rate of moisture evaporation in the sample (coefficient k of rate of moisture evaporation found as dW/dt=kW where the amount of moisture is W and the elapsed time is t, that is, logW=kt+C (C is a constant)) was calculated. […]\nNote that the method of study of this moisture retention effect was the same as the method used in the above Test Example A2. […]\nNote that the method of study of the moisture retention effect was the same as the method performed in the above Test Example A2.\nThe moisture retention effect of unicellularized iris rhizome was studied in comparison with purified water, glycerol, and an ethanol extract of iris rhizome.\nThat is, with the exception of the purified water, a 50 wt % aqueous solution was prepared and the coefficient of the moisture evaporation rate was found in the same way as the study of the moisture retention effect of unicellularized carrot (Test Example A2). […]",
  "data": [
    {"compound": "OCC(O)CO", "note": "[Glycerol]", "values": [
      {"measurement": "Coefficient of moisture evaporation rate", "result": "−0.0230"}
    ]}
  ]
}
